Earlier results as cited in US12343373B2, “Glycopeptide antibiotics liquid formulations and methods and uses thereof” (SOMERSET THERAPEUTICS, LLC, priority 2020, dated 2025).
Where two headings read alike, the source gives them in different places.

What was measured:
[1] = oral dosing

Row | Compound | hydrolysis to methionine [1] | other results
1 | CSCC[C@@H](NC(C)=O)C(=O)O [NADM, N-acetyl-D-methionine] | only minimally hydrolyzed to D- and L-methionine | 
2 | CSCC[C@H](NC(C)=O)C(=O)O [NALM, N-acetyl-L-methionine] | completely hydrolyzed to L-methionine and acetic acid | 
3 | polyethylene glycol 400 [polyethylene glycol (PEG 400)] |  | embryo-fetal toxicity (in vivo): caused fetal malformations
4 | CC(=O)N[C@H](C)C(=O)O [N-acetyl D-alanine (NADA), N-acetyl-D-alanine] |  | embryo-fetal toxicity (animal reproduction studies, product label black box warning): caused fetal malformations
